Structures are written as SMILES. Where a name gives a salt, the structure may show the parent alone.

One assay deals with Il12b. Briefly: Dual-fluorescence reporter macrophage cell line screen, lipopolysaccharide-stimulated: chromatinized Il12b-eGFP versus minimal Il12b-DsRed reporter. Type of assay: cell-based. The conditions noted are these: additional compounds of Formulas (I)-(IV), same screening procedure. An excerpt: We hypothesized that molecules that inhibit the “chromatinized” Il12b reporter but not the “minimal” Il12b reporter would offer a greater degree of Il12b inhibition selectivity.
We generated a dual-fluorescence reporter macrophage cell line having both a [Il12b]-[eGFP] chromatin-based construct and a [Il12b]-[DSred] plasmid vector. FIG. 3. We then stimulated an […] response in the cell line using lipopolysaccharide, an activator of Il12b expression, and tested a library of over 60,000 known and unknown (i.e., undescribed in the literature) small-molecule compounds.
Additional compounds in Formulas (I)-(IV) were screened following the same procedure as described above, with eGFP fluorescence as a readout for inhibition of IL12b.
In the case of `COc1cc(OC)cc(C(=O)N(Cc2ccc(F)cc2)Cc2cc3c(C)ccc(C)c3[nH]c2=O)c1` [Compound I-2, N-[(5,8-dimethyl-2-oxo-1H-quinolin-3-yl)methyl]-N-[(4-fluorophenyl)methyl]-3,5-dimethoxybenzamide], the “inhibition of IL12b, eGFP fluorescence as readout” value (“inhibition of IL12b” for short) is “Positive activity”.

In the case of `CCOc1ccc2[nH]c(=O)c(CN(Cc3ccco3)C(=O)c3ccc(C(C)(C)C)cc3)cc2c1` [Compound I-3, 4-tert-butyl-N-[(6-ethoxy-2-oxo-1H-quinolin-3-yl)methyl]-N-(furan-2-ylmethyl)benzamide], the “inhibition of IL12b” value is “Positive activity”.

As to `Cc1ccc(NC(=O)N(Cc2ccco2)Cc2cc3cc4c(cc3[nH]c2=O)OCCO4)cc1` [Compound I-4, 1-(furan-2-ylmethyl)-3-(4-methylphenyl)-1-[(7-oxo-3,6-dihydro-2H-[1,4]dioxino[2,3-g]quinolin-8-yl)methyl]urea], the “inhibition of IL12b” value is given as “Positive activity”.

With `CCOc1ccc2[nH]c(=O)c(CN(Cc3ccco3)C(=O)Nc3ccc(OC)cc3)cc2c1` [Compound I-5, 1-[(6-ethoxy-2-oxo-1H-quinolin-3-yl)methyl]-1-(furan-2-ylmethyl)-3-(4-methoxyphenyl)urea], the “inhibition of IL12b” value is reported as “Positive activity”.

`CCOc1ccc(NC(=S)N(Cc2ccco2)Cc2cc3ccc(C)cc3[nH]c2=O)cc1` [Compound I-6, 3-(4-ethoxyphenyl)-1-(furan-2-ylmethyl)-1-[(7-methyl-2-oxo-1H-quinolin-3-yl)methyl]thiourea]: the “inhibition of IL12b” value is “Positive activity”.

Turning to `Cc1ccc(NC(=O)N(Cc2ccco2)Cc2cc3cc4c(cc3[nH]c2=O)OCO4)cc1` [Compound I-7, 1-(furan-2-ylmethyl)-3-(4-methylphenyl)-1-[(6-oxo-5H-[1,3]dioxolo[4,5-g]quinolin-7-yl)methyl]urea], the “inhibition of IL12b” value was “Positive activity”.

On to `O=C(NCc1ccccc1)N(Cc1ccco1)Cc1cc2cc3c(cc2[nH]c1=O)OCO3` [Compound I-8, 3-benzyl-1-(furan-2-ylmethyl)-1-[(6-oxo-5H-[1,3]dioxolo[4,5-g]quinolin-7-yl)methyl]urea], for which the “inhibition of IL12b” value is “Positive activity”.

As to `CCc1ccc2[nH]c(=O)c(CN(Cc3ccco3)C(=S)NCc3ccccc3)cc2c1` [Compound I-9, 3-benzyl-1-[(6-ethyl-2-oxo-1H-quinolin-3-yl)methyl]-1-(furan-2-ylmethyl)thiourea], the “inhibition of IL12b” value was “Positive activity”.

On to `Cc1ccc(C)c2[nH]c(=O)c(CN(Cc3ccco3)C(=S)NCc3ccco3)cc12` [Compound I-10, 1-[(5,8-dimethyl-2-oxo-1H-quinolin-3-yl)methyl]-1,3-bis(furan-2-ylmethyl)thiourea], for which the “inhibition of IL12b” value is listed as “Positive activity”.

`CCOc1ccc2[nH]c(=O)c(CN(Cc3ccco3)C(=O)c3cccs3)cc2c1` [Compound I-11, N-[(6-ethoxy-2-oxo-1H-quinolin-3-yl)methyl]-N-(furan-2-ylmethyl)thiophene-2-carboxamide]: the “inhibition of IL12b” value is “Positive activity”.

As to `O=C(CCc1ccccc1)N/N=C\c1ccc([N+](=O)[O-])s1` [II-2, N—[(Z)-(5-nitrothiophen-2-yl)methylideneamino]-3-phenylpropanamide], the “inhibition of IL12b” value was “Positive activity”.

For `O=C(N/N=C\c1ccc([N+](=O)[O-])o1)c1ccc(-c2ccccc2)cc1` [II-3, N—[(Z)-(5-nitrofuran-2-yl)methylideneamino]-4-phenylbenzamide], the “inhibition of IL12b” value was “Positive activity”.

As for `C/C(=N\NC(=O)c1cccc(Cl)c1)c1ccc([N+](=O)[O-])o1` [II-4, 3-chloro-N-[(E)-1-(5-nitrofuran-2-yl)ethylideneamino]benzamide], the “inhibition of IL12b” value is “Positive activity”.

For `O=C(Cc1ccc(Cl)cc1)N/N=C\c1ccc([N+](=O)[O-])o1` [II-5, 2-(4-chlorophenyl)-N—[(Z)-(5-nitrofuran-2-yl)methylideneamino]acetamide], the “inhibition of IL12b” value is reported as “Positive activity”.

On to `O=C(N/N=C\c1ccc([N+](=O)[O-])o1)c1cccc2ccccc12` [II-6, N—[(Z)-(5-nitrofuran-2-yl)methylideneamino]naphthalene-1-carboxamide], for which the “inhibition of IL12b” value is “Positive activity”.

Consider `O=c1cccc2n1C[C@H]1C[C@@H]2CN(Cc2ccc3ccc4cccc5ccc2c3c45)C1` [III-2, (1R,9S)-11-(pyren-1-ylmethyl)-7,11-diazatricyclo[7.3.1.0^2,7]trideca-2,4-dien-6-one], for which the “inhibition of IL12b” value was “Positive activity”.

With `COc1ccc(Br)cc1/C=C/C(=O)c1ccc2c(c1)OCCO2` [IV-2, (E)-3-(5-bromo-2-methoxyphenyl)-1-(2,3-dihydro-1,4-benzodioxin-6-yl)prop-2-en-1-one], the “inhibition of IL12b” value was “Positive activity”.

Consider `COc1ccc(OC)c(/C=C/C(=O)c2ccc(C)cc2)c1` [IV-3, (E)-3-(2,5-dimethoxyphenyl)-1-(4-methylphenyl)prop-2-en-1-one], for which the “inhibition of IL12b” value is “Positive activity”.

Regarding `COc1ccc(C(=O)/C=C/c2cccc(Cl)c2)cc1OC` [IV-4, (E)-3-(3-chlorophenyl)-1-(3,4-dimethoxyphenyl)prop-2-en-1-one], the “inhibition of IL12b” value was “Positive activity”.

For the compound `CCOc1ccc(C(=O)/C=C/c2cccc(OC)c2OC)cc1` [IV-5, (E)-3-(2,3-dimethoxyphenyl)-1-(4-ethoxyphenyl)prop-2-en-1-one], the “inhibition of IL12b” value is “Positive activity”.

Staying with this assay, now noted: lipopolysaccharide-stimulated dual-fluorescence reporter macrophage cell line.
Take `C/C(=C\c1cccc2ccccc12)[N+](=O)[O-]` [1-(2-nitro-1-propen-1-yl)naphthalene]: the “selective inhibition of the chromatinized Il12b reporter (eGFP) but not the minimal reporter (DsRed)” value is reported as “selective inhibitors of chromatinized Il12b”.

As for `CCOc1ccc(/C=C/[N+](=O)[O-])cc1` [1-ethoxy-4-(2-nitrovinyl)benzene], the “selective inhibition of the chromatinized Il12b reporter (eGFP) but not the minimal reporter (DsRed)” value is on record as “selective inhibitors of chromatinized Il12b”.

Regarding `O=C(/C(=C/c1cccnc1)c1nc2ccccc2[nH]1)c1ccccc1` [2-(1H-benzimidazol-2-yl)-1-phenyl-3-(3-pyridinyl)-2-propen-1-one], the “selective inhibition of the chromatinized Il12b reporter (eGFP) but not the minimal reporter (DsRed)” value is “selective inhibitors of chromatinized Il12b”.

In the case of `NC(=O)c1ccccc1/N=C/c1ccc([N+](=O)[O-])s1` [2-{[(5-nitro-2-thienyl)methylene]amino}benzamide], the “selective inhibition of the chromatinized Il12b reporter (eGFP) but not the minimal reporter (DsRed)” value is listed as “selective inhibitors of chromatinized Il12b”.

For `CC[n+]1c2ccccc2nc2ccccc21` [5-ethylphenazin-5-ium ethyl sulfate], the “selective inhibition of the chromatinized Il12b reporter (eGFP) but not the minimal reporter (DsRed)” value is given as “selective inhibitors of chromatinized Il12b”.

Regarding `O=c1cc(C(Cl)(Cl)Cl)oc2ccc(Cl)cc12` [6-chloro-2-(trichloromethyl)-4H-chromen-4-one], the “selective inhibition of the chromatinized Il12b reporter (eGFP) but not the minimal reporter (DsRed)” value is “selective inhibitors of chromatinized Il12b”.

As to `CC(=O)Nc1ccc(Br)cc1-c1ccccc1` [N-(5-bromo-2-biphenylyl)acetamide], the “selective inhibition of the chromatinized Il12b reporter (eGFP) but not the minimal reporter (DsRed)” value is on record as “selective inhibitors of chromatinized Il12b”.
